Results as given in patent US10683269B2 (MISSION THERAPEUTICS LIMITED, priority 2016, dated 2020).

Molecular target: T1, USP7 (Homo sapiens, UniProt Q93009)
T1 construct: The USP7 construct was PCR amplified and cloned into a pFLAG-CMV-6a vector (Sigma-Aldrich) with an N-terminal FLAG tag; made in house; host or cells: HEK293T
Assay: USP7 biochemical IC50 assay (fluorescence polarisation, TAMRA labelled peptide linked to ubiquitin via an iso-peptide bond)
Conditions: 30 min pre-incubation of enzyme and compound, read after 2 hr incubation at room temperature, read-out: IC50 range
Protocol: In Vitro USP7 Inhibition Assay
Expression and Purification of USP7
The USP7 construct was PCR amplified and cloned into a pFLAG-CMV-6a vector (Sigma-Aldrich) with an N-terminal FLAG tag. HEK293T cells were transfected with FLAG-USP7 using TransIT-LT1 transfection reagent (Mirus) according to the manufacturer's instructions. Cells were harvested 40 hours after transfection. […] The resin was washed two times with low salt buffer plus protease inhibitors (complete mini, Roche) and phosphatase inhibitors (PhosSTOP mini, Roche) and one time with high salt buffer (20 mM Tris, pH 7.5, 500 mM NaCl, 0.5 mM EDTA, 5 mM beta-mercaptoethanol, protease inhibitors (complete mini, Roche) and phosphatase inhibitors (PhosSTOP mini, Roche). To elute the bound USP7, elution buffer (10 mM Tris, pH 7.5, 150 mM NaCl, 0.5 mM EDTA, 10% glycerol, 0.5% NP40, 5 mM beta-mercaptoethanol, 0.15 mg/ml 3×FLAG peptide (Sigma-Aldrich)) was added to the resin and incubated at 4° C. for 2.5 hours rotating. The resin was centrifuged at 4000 rpm for 30 seconds, and the supernatant containing purified FLAG-USP7 was removed and stored at −80° C.
USP7 Biochemical IC50 Assay
A typical 8-point dilution series would be 100, 30, 10, 3, 1, 0.3, 0.1, 0.03 μM final. […] Either 1 μl of 50% DMSO or diluted compound was added to the plate. USP7 was diluted in reaction buffer (20 mM Tris, pH 7.5, 100 mM NaCl, 0.05% Tween 20, 0.5 mg/ml BSA, 5 mM—beta mercaptoethanol) to the equivalent of 0.0025 μl/well and 10 μl of diluted USP7 was added to the compound. Enzyme and compound were incubated for 30 min at room temp. Reactions were initiated by the addition of 50 nM of TAMRA labelled peptide linked to ubiquitin via an iso-peptide bond as fluorescence polarisation substrate. Reactions were read immediately after addition of substrate and following a 2 hr incubation at room temperature. Readings were performed on a Pherastar Plus (BMG Labtech). λ Excitation 540 nm; λ Emission 590 nm.

T1 sequence (Q93009 whole entry): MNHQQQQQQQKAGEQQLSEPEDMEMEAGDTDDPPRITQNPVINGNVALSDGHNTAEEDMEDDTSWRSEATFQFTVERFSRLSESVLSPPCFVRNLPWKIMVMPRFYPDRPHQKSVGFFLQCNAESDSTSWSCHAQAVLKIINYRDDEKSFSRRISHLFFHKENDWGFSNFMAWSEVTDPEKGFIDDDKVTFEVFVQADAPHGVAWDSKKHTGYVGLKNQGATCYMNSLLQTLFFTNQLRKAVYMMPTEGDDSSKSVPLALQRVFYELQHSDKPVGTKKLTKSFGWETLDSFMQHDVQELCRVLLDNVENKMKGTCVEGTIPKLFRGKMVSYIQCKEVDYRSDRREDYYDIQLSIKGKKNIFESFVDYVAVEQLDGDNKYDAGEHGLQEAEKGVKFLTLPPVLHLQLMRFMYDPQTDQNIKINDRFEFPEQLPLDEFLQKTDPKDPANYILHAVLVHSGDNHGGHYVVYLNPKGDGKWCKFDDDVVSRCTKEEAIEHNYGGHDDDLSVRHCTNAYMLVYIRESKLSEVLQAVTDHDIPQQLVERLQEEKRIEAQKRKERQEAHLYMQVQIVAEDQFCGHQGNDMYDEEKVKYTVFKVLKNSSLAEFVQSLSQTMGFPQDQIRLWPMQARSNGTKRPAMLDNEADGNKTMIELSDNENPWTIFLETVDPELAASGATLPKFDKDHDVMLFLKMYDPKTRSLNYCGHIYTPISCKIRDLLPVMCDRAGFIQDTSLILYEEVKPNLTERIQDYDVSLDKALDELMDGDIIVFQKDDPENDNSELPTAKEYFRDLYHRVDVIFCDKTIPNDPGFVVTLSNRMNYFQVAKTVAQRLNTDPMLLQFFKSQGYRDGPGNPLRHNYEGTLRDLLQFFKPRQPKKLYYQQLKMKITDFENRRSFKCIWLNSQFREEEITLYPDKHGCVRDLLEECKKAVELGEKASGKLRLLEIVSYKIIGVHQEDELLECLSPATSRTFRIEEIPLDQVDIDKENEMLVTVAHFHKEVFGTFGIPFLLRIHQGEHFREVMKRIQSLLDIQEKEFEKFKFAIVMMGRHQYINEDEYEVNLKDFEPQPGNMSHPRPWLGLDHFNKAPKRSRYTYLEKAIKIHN

SMILES | IC50 [µM]
CNC(=O)C1CCCN1c1nc(-c2ccccc2)nc2c1CN(C#N)C2 (stereo not shown) [Example 133, 1-(6-cyano-2-phenyl-6,7-dihydro-5H-pyrrolo[3,4-d]pyrimidin-4-yl)-N-methylpyrrolidine-2-carboxamide] | 10 to 30
N#Cc1cc(-c2cn[nH]c2)ccc1-c1cccc2c1CN(C#N)C2 [Example 294, 4-(2-cyano-4-(1H-pyrazol-4-yl)phenyl)isoindoline-2-carbonitrile] | 1 to 10
N#Cc1ccc(-c2cccc3c2CN(C#N)C3)c(C(N)=O)c1 [Example 1, 5-cyano-2-(2-cyanoisoindolin-4-yl)benzamide] | 1 to 10
CN(C)c1nc2c(c(N3CCC(Oc4ccccc4)CC3)n1)CN(C#N)C2 [Example 205, 2-(dimethylamino)-4-(4-phenoxypiperidin-1-yl)-5,7-dihydro-6H-pyrrolo[3,4-d]pyrimidine-6-carbonitrile] | 1 to 10
N#Cc1cc(Cl)ccc1-c1cccc2c1CN(C#N)C2 [Example 169, 4-(4-chloro-2-cyanophenyl)isoindoline-2-carbonitrile] | 1 to 10
CS(=O)(=O)Nc1cc2c(c(-c3ccccc3C#N)c1)CN(C#N)C2 [Example 242, N-(2-cyano-7-(2-cyanophenyl)isoindolin-5-yl)methanesulfonamide] | 1 to 10
CN(C)C(=O)Cc1cc2c(c(-c3ccccc3)c1)CN(C#N)C2 [Example 251, 2-(2-cyano-7-phenylisoindolin-5-yl)-N,N-dimethylacetamide] | 1 to 10
COCCc1cc2c(c(-c3ccccc3C(N)=O)c1)CN(C#N)C2 [Example 255, 2-(2-cyano-6-(2-methoxyethyl)isoindolin-4-yl)benzamide] | 1 to 10
CN1CCCC(CNc2nc3c(c(-c4ccccc4)n2)CN(C#N)C3)C1 (stereo not shown) [Example 125, 2-(((1-methylpiperidin-3-yl)methyl)amino)-4-phenyl-5,7-dihydro-6H-pyrrolo[3,4-d]pyrimidine-6-carbonitrile] | 1 to 10
N#CN1Cc2cc(NC(=O)C3CNC(=O)C3)cc(-c3ccccc3)c2C1 (stereo not shown) [Example 42, N-(2-cyano-7-phenylisoindolin-5-yl)-5-oxopyrrolidine-3-carboxamide] | < 1
CN1CC=C(c2cccc3c2CN(C#N)C3)CC1 [Example 10, 4-(1-methyl-1,2,3,6-tetrahydropyridin-4-yl)isoindoline-2-carbonitrile] | 1 to 10
CC(=O)Nc1cccc(-c2nc(NCC3CN(C)CCO3)nc3c2CN(C#N)C3)c1 (stereo not shown) [Example 195, N-(3-(6-cyano-2-(((4-methylmorpholin-2-yl)methyl)amino)-6,7-dihydro-5H-pyrrolo[3,4-d]pyrimidin-4-yl)phenyl)acetamide] | 1 to 10
CN1CCCC(C(=O)Nc2cc3c(c(-c4ccccc4C(N)=O)c2)CN(C#N)C3)C1 (stereo not shown) [Example 56, N-(7-(2-carbamoylphenyl)-2-cyanoisoindolin-5-yl)-1-methylpiperidine-3-carboxamide] | 1 to 10
N#CN1Cc2nc(-c3ccccc3)nc(N3CCCC3C(N)=O)c2C1 (stereo not shown) [Example 131, 1-(6-cyano-2-phenyl-6,7-dihydro-5H-pyrrolo[3,4-d]pyrimidin-4-yl)pyrrolidine-2-carboxamide] | 10 to 30
CC(=O)NCc1cc2c(c(-c3ccc(C#N)cc3)c1)CN(C#N)C2 [Example 217, N-((2-cyano-7-(4-cyanophenyl)isoindolin-5-yl)methyl)acetamide] | 1 to 10
CN(C)CC(=O)Nc1cc2c(c(-c3ccc(C#N)cc3)c1)CN(C#N)C2 [Example 267, N-(2-cyano-7-(4-cyanophenyl)isoindolin-5-yl)-2-(dimethylamino)acetamide] | < 1
CNC(=O)c1cccc(-c2cc(NC(=O)[C@@H]3CCCN(C)C3)cc3c2CN(C#N)C3)c1 [Example 30] | 1 to 10
N#CN1Cc2nc(-c3cccnc3)nc(N3CCCC3)c2C1 [Example 137, 2-(pyridin-3-yl)-4-(pyrrolidin-1-yl)-5,7-dihydro-6H-pyrrolo[3,4-d]pyrimidine-6-carbonitrile] | 1 to 10
COc1cccc(-c2cc(NC(=O)[C@@H]3CCCN(C)C3)cc3c2CN(C#N)C3)c1 [Example 31, (R)-N-(2-cyano-7-(3-methoxyphenyl)isoindolin-5-yl)-1-methylpiperidine-3-carboxamide] | 1 to 10

Second part, the compound after the results:

IC50 [µM] | SMILES
10 to 30 | N#CN1Cc2cccc(N3C(=O)CCCC3=O)c2C1 [Example 268, 4-(2,6-dioxopiperidin-1-yl)isoindoline-2-carbonitrile]
1 to 10 | CN1CCOC(CNc2nc3c(c(-c4ccccc4)n2)CN(C#N)C3)C1 (stereo not shown) [Example 124, 2-(((4-methylmorpholin-2-yl)methyl)amino)-4-phenyl-5,7-dihydro-6H-pyrrolo[3,4-d]pyrimidine-6-carbonitrile]
1 to 10 | Cc1cc(-c2cccc3c2CN(C#N)C3)c(C(N)=O)cc1C#N [Example 156, 5-cyano-2-(2-cyanoisoindolin-4-yl)-4-methylbenzamide]
1 to 10 | N#CN1Cc2cccc(-c3cccc(C(=O)NCc4ccccc4)c3)c2C1 [Example 73, N-benzyl-3-(2-cyanoisoindolin-4-yl)benzamide]
1 to 10 | N#CN1Cc2cccc(-c3ccccc3C(=O)NCCn3cnccc3=O)c2C1 [Example 180, 2-(2-cyanoisoindolin-4-yl)-N-(2-(6-oxopyrimidin-1(6H)-yl)ethyl)benzamide]
1 to 10 | CNc1nc2c(c(N3CCC(Oc4ccccc4)CC3)n1)CN(C#N)C2 [Example 204, 2-(methylamino)-4-(4-phenoxypiperidin-1-yl)-5,7-dihydro-6H-pyrrolo[3,4-d]pyrimidine-6-carbonitrile]
1 to 10 | N#Cc1cc2c(c(-c3ccccc3C(N)=O)c1)CN(C#N)C2 [Example 231, 2-(2,6-dicyanoisoindolin-4-yl)benzamide]
1 to 10 | CC(=O)Nc1cc2c(c(-c3ccccc3)c1)CN(C#N)C2 [Example 57]
< 1 | CN(C)c1cc2c(c(-c3ccc(C#N)cc3)c1)CN(C#N)C2 [Example 270, 4-(4-cyanophenyl)-6-(dimethylamino)isoindoline-2-carbonitrile]
< 1 | CN1CCOC(C(=O)Nc2cc3c(c(-c4ccccc4)c2)CN(C#N)C3)C1 (stereo not shown) [Example 53, N-(2-cyano-7-phenylisoindolin-5-yl)-4-methylmorpholine-2-carboxamide]
1 to 10 | N#CN1Cc2cccc(NC(=O)c3ccc(CNC(=O)OCc4ccccc4)cc3)c2C1 [Example 91, benzyl (4-((2-cyanoisoindolin-4-yl)carbamoyl)benzyl carbamate]
< 1 | COc1ccc(-c2nc(NCCO)nc3c2CN(C#N)C3)cc1 [Example 211, 2-((2-hydroxyethyl)amino)-4-(4-methoxyphenyl)-5,7-dihydro-6H-pyrrolo[3,4-d]pyrimidine-6-carbonitrile]
1 to 10 | CC(C)(O)CNc1cc2c(c(-c3ccc(C#N)cc3)c1)CN(C#N)C2 [Example 287, 4-(4-cyanophenyl)-6-((2-hydroxy-2-methylpropyl)amino)iso-indoline-2-carbonitrile]
1 to 10 | C[C@@H](NC(=O)c1cccc(-c2cccc3c2CN(C#N)C3)c1)c1ccccc1 [Example 76, (R)-3-(2-cyanoisoindolin-4-yl)-N-(1-phenylethyl)benzamide]
1 to 10 | CN(C)Cc1cc2c(c(-c3ccccc3)c1)CN(C#N)C2 [Example 213, 6-((dimethylamino)methyl)-4-phenylisoindoline-2-carbonitrile]
1 to 10 | CC(=O)N(C)c1cc2c(c(-c3ccccc3)c1)CN(C#N)C2 [Example 58, N-(2-cyano-7-phenylisoindolin-5-yl)-N-methylacetamide]
1 to 10 | N#Cc1ccc(-c2cc(CCc3cccnc3)cc3c2CN(C#N)C3)cc1 [Example 256, 4-(4-cyanophenyl)-6-(2-(pyridin-3-yl)ethyl)isoindoline-2-carbonitrile]
1 to 10 | COc1ccc(C#N)c(-c2cccc3c2CN(C#N)C3)c1 [Example 172, 4-(2-cyano-5-methoxyphenyl)isoindoline-2-carbonitrile]
1 to 10 | N#Cc1cc(F)c(-c2cccc3c2CN(C#N)C3)c(C(N)=O)c1 [Example 301, 5-cyano-2-(2-cyanoisoindolin-4-yl)-3-fluorobenzamide]
1 to 10 | N#Cc1ccc(-c2cccc3c2CN(C#N)C3)c(C(=O)N2CCC2)c1 [Example 4, 4-(2-(azetidine-1-carbonyl)-4-cyanophenyl)isoindoline-2-carbonitrile]
1 to 10 | CC1c2cccc(-c3ccc(C#N)cc3C(N)=O)c2CN1C#N (single isomer, unassigned) [Example 259, 5-cyano-2-(2-cyano-1-methylisoindolin-4-yl)benzamide]
